Test results: patent US9938322B2, “β-hairpin peptidomimetics” (priority 2013, dated 2018)
Where a SMILES comes first, the peptide text is derived from it. [ ]: non-standard residue; d: D form. Phe(4-CF3) = N[C@@H](Cc1ccc(C(F)(F)F)cc1)C(=O)O; Tyr(3-F) = N[C@@H](Cc1ccc(O)c(F)c1)C(=O)O; Cha = N[C@@H](CC1CCCCC1)C(=O)O; aThr = C[C@H](O)[C@H](N)C(=O)O; Chg = N[C@H](C(=O)O)C1CCCCC1; Tle = CC(C)(C)[C@H](N)C(=O)O; dDab = NCC[C@@H](N)C(=O)O; Orn = NCCC[C@H](N)C(=O)O; Dab = NCC[C@H](N)C(=O)O; Nva = CCC[C@H](N)C(=O)O; Dap = NC[C@H](N)C(=O)O

Tested on: human red blood cells (hRBC)
Experiment: Hemolysis of human red blood cells
Format: cell-based
Conditions: red cells of human, 1 h, 100
How it was run: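 Washed fresh human erythrocytes (20% v/v, about 0.9×10^9 cells/ml final) incubated with peptide at 100 μg/ml for 1 h at 37° C with shaking. Supernatant OD540 read; hemolysis expressed relative to 2.5% Triton X-100 (100%) and PBS with 0.001% acetic acid (0%).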

CC[C@H](C)[C@@H]1NC(=O)[C@@H]2CCCN2C(=O)[C@H]2CCCN2C(=O)[C@H](CO)NC(=O)[C@H](C)NC(=O)[C@H](C(C)(C)C)NC(=O)[C@H](CCN)NC(=O)[C@H](Cc2c[nH]c3ccccc23)NC(=O)[C@H](CCN)NC(=O)[C@@H](CCN)NC(=O)[C@H](CCCN)NC(=O)[C@H](CCN)NC(=O)[C@H](Cc2ccc(O)cc2)NC(=O)[C@H]([C@H](C)O)NC1=O [compound 86] (cyclo(I[aThr]Y[Dab][Orn][dDab][Dab]W[Dab][Tle]AS[dP]P))
Hemolysis at 100 μg/ml: 1%

CC(C)C[C@@H]1NC(=O)[C@@H]2CCCN2C(=O)[C@H]2CCCN2C(=O)[C@H](CO)NC(=O)[C@H](C)NC(=O)[C@H](C(C)(C)C)NC(=O)[C@H](CCN)NC(=O)[C@H](Cc2c[nH]c3ccccc23)NC(=O)[C@H](CCN)NC(=O)[C@@H](CCN)NC(=O)[C@H](CCCN)NC(=O)[C@H](CCCN)NC(=O)[C@H](Cc2ccc(O)cc2)NC(=O)[C@H](CO)NC1=O [compound 87] (cyclo(LSY[Orn][Orn][dDab][Dab]W[Dab][Tle]AS[dP]P))
Hemolysis at 100 μg/ml: 1%

CC(C)C[C@@H]1NC(=O)[C@@H]2CCCN2C(=O)[C@H]2CCCN2C(=O)[C@H]([C@@H](C)O)NC(=O)[C@H](C)NC(=O)[C@H](C(C)(C)C)NC(=O)[C@H](CCN)NC(=O)[C@H](Cc2c[nH]c3ccccc23)NC(=O)[C@H](CCN)NC(=O)[C@@H](CCN)NC(=O)[C@H](CCCN)NC(=O)[C@H](CCN)NC(=O)[C@H](Cc2ccc(O)cc2)NC(=O)[C@H](CO)NC1=O [compound 88] (cyclo(LSY[Dab][Orn][dDab][Dab]W[Dab][Tle]AT[dP]P))
Hemolysis at 100 μg/ml: 1%

CCC[C@@H]1NC(=O)[C@@H]2CCCN2C(=O)[C@H]2CCCN2C(=O)[C@H](CO)NC(=O)[C@H](C)NC(=O)[C@H](C2CCCCC2)NC(=O)[C@H](CCN)NC(=O)[C@H](Cc2c[nH]c3ccccc23)NC(=O)[C@H](CCN)NC(=O)[C@@H](CCN)NC(=O)[C@H](CCCN)NC(=O)[C@H](CCN)NC(=O)[C@H](Cc2ccc(O)cc2)NC(=O)[C@H](CO)NC1=O [compound 89] (cyclo([Nva]SY[Dab][Orn][dDab][Dab]W[Dab][Chg]AS[dP]P))
Hemolysis at 100 μg/ml: 0%

CC(C)[C@@H]1NC(=O)[C@@H]2CCCN2C(=O)[C@H]2CCCN2C(=O)[C@H](CO)NC(=O)[C@H](C)NC(=O)[C@H](C2CCCCC2)NC(=O)[C@H](CCN)NC(=O)[C@H](Cc2c[nH]c3ccccc23)NC(=O)[C@H](CCN)NC(=O)[C@@H](CCN)NC(=O)[C@H](CCCN)NC(=O)[C@H](CCN)NC(=O)[C@H](Cc2ccc(O)cc2)NC(=O)[C@H](CO)NC1=O [compound 90] (cyclo(VSY[Dab][Orn][dDab][Dab]W[Dab][Chg]AS[dP]P))
Hemolysis at 100 μg/ml: 2%

CC(C)C[C@@H]1NC(=O)[C@@H]2CCCN2C(=O)[C@H]2CCCN2C(=O)[C@H](CO)NC(=O)[C@H](C)NC(=O)[C@H](C(C)(C)C)NC(=O)[C@H](CCN)NC(=O)[C@H](Cc2c[nH]c3ccccc23)NC(=O)[C@H](CCN)NC(=O)[C@@H](CCN)NC(=O)[C@H](CCCN)NC(=O)[C@H](CN)NC(=O)[C@H](Cc2ccc(O)cc2)NC(=O)[C@H](CO)NC1=O [compound 91] (cyclo(LSY[Dap][Orn][dDab][Dab]W[Dab][Tle]AS[dP]P))
Hemolysis at 100 μg/ml: 0%

CC(C)[C@@H]1NC(=O)[C@@H]2CCCN2C(=O)[C@H]2CCCN2C(=O)[C@H](CO)NC(=O)[C@H](C)NC(=O)[C@H](CC2CCCCC2)NC(=O)[C@H](CCN)NC(=O)[C@H](Cc2c[nH]c3ccccc23)NC(=O)[C@H](CCN)NC(=O)[C@@H](CCN)NC(=O)[C@H](CCCN)NC(=O)[C@H](CCN)NC(=O)[C@H](Cc2ccc(O)cc2)NC(=O)[C@H](CO)NC1=O [compound 92] (cyclo(VSY[Dab][Orn][dDab][Dab]W[Dab][Cha]AS[dP]P))
Hemolysis at 100 μg/ml: 5%

CCC[C@@H]1NC(=O)[C@@H]2CCCN2C(=O)[C@H]2CCCN2C(=O)[C@H](CO)NC(=O)[C@H](C)NC(=O)[C@H](CC2CCCCC2)NC(=O)[C@H](CCN)NC(=O)[C@H](Cc2c[nH]c3ccccc23)NC(=O)[C@H](CCN)NC(=O)[C@@H](CCN)NC(=O)[C@H](CCCN)NC(=O)[C@H](CCN)NC(=O)[C@H](Cc2ccc(O)cc2)NC(=O)[C@H](CO)NC1=O [compound 93] (cyclo([Nva]SY[Dab][Orn][dDab][Dab]W[Dab][Cha]AS[dP]P))
Hemolysis at 100 μg/ml: 5%

CC(C)C[C@@H]1NC(=O)[C@@H]2CCCN2C(=O)[C@H]2CCCN2C(=O)[C@H](CO)NC(=O)[C@H](C)NC(=O)[C@H](C2CCCCC2)NC(=O)[C@H](CCN)NC(=O)[C@H](Cc2c[nH]c3ccccc23)NC(=O)[C@H](CCN)NC(=O)[C@H](CCN)NC(=O)[C@H](CCCN)NC(=O)[C@H](CCN)NC(=O)[C@H](Cc2ccc(O)cc2)NC(=O)[C@H](CO)NC1=O [compound 94] (cyclo(LSY[Dab][Orn][Dab][Dab]W[Dab][Chg]AS[dP]P))
Hemolysis at 100 μg/ml: 0%

CC(C)C[C@@H]1NC(=O)[C@@H]2CCCN2C(=O)[C@H]2CCCN2C(=O)[C@H](CO)NC(=O)[C@H](C)NC(=O)[C@H](C(C)(C)C)NC(=O)[C@H](CCN)NC(=O)[C@H](Cc2c[nH]c3ccccc23)NC(=O)[C@H](CCN)NC(=O)[C@@H](CCN)NC(=O)[C@H](CN)NC(=O)[C@H](CCN)NC(=O)[C@H](Cc2ccc(O)cc2)NC(=O)[C@H](CO)NC1=O [compound 95] (cyclo(LSY[Dab][Dap][dDab][Dab]W[Dab][Tle]AS[dP]P))
Hemolysis at 100 μg/ml: 1%

CC(C)C[C@@H]1NC(=O)[C@@H]2CCCN2C(=O)[C@H]2CCCN2C(=O)[C@H](CO)NC(=O)[C@H](C)NC(=O)[C@H](C(C)(C)C)NC(=O)[C@H](CCN)NC(=O)[C@H](Cc2c[nH]c3ccccc23)NC(=O)[C@H](CCN)NC(=O)[C@@H](CCN)NC(=O)[C@H](CCN)NC(=O)[C@H](CCN)NC(=O)[C@H](Cc2ccc(O)cc2)NC(=O)[C@H](CO)NC1=O [compound 96] (cyclo(LSY[Dab][Dab][dDab][Dab]W[Dab][Tle]AS[dP]P))
Hemolysis at 100 μg/ml: 1%

CC(C)C[C@@H]1NC(=O)[C@@H]2CCCN2C(=O)[C@H]2CCCN2C(=O)[C@H](CO)NC(=O)[C@H](C)NC(=O)[C@H](C(C)(C)C)NC(=O)[C@H](CCCNC(=N)N)NC(=O)[C@H](Cc2c[nH]c3ccccc23)NC(=O)[C@H](CCN)NC(=O)[C@@H](CCN)NC(=O)[C@H](CCCN)NC(=O)[C@H](CCN)NC(=O)[C@H](Cc2ccc(O)cc2)NC(=O)[C@H](CO)NC1=O [compound 97] (cyclo(LSY[Dab][Orn][dDab][Dab]WR[Tle]AS[dP]P))
Hemolysis at 100 μg/ml: 1%

CC(C)C[C@@H]1NC(=O)[C@@H]2CCCN2C(=O)[C@H]2CCCN2C(=O)[C@H](CO)NC(=O)[C@H](C)NC(=O)[C@H](C(C)(C)C)NC(=O)[C@H](CCN)NC(=O)[C@H](Cc2c[nH]c3ccccc23)NC(=O)[C@H](CCN)NC(=O)[C@@H](CCN)NC(=O)[C@H](CCCNC(=N)N)NC(=O)[C@H](CCN)NC(=O)[C@H](Cc2ccc(O)cc2)NC(=O)[C@H](CO)NC1=O [compound 98] (cyclo(LSY[Dab]R[dDab][Dab]W[Dab][Tle]AS[dP]P))
Hemolysis at 100 μg/ml: 1%

CC(C)C[C@@H]1NC(=O)[C@@H]2CCCN2C(=O)[C@H]2CCCN2C(=O)[C@H](CO)NC(=O)[C@H](C)NC(=O)[C@H](C(C)(C)C)NC(=O)[C@H](CCN)NC(=O)[C@H](Cc2c[nH]c3ccccc23)NC(=O)[C@H](CCCN)NC(=O)[C@@H](CCN)NC(=O)[C@H](CCCN)NC(=O)[C@H](CCN)NC(=O)[C@H](Cc2ccc(O)cc2)NC(=O)[C@H](CO)NC1=O [compound 99] (cyclo(LSY[Dab][Orn][dDab][Orn]W[Dab][Tle]AS[dP]P))
Hemolysis at 100 μg/ml: 0%

CC(C)C[C@@H]1NC(=O)[C@@H]2CCCN2C(=O)[C@H]2CCCN2C(=O)[C@H](CO)NC(=O)[C@H](C)NC(=O)[C@H](C(C)(C)C)NC(=O)[C@H](CCCCN)NC(=O)[C@H](Cc2c[nH]c3ccccc23)NC(=O)[C@H](CCN)NC(=O)[C@@H](CCN)NC(=O)[C@H](CCCN)NC(=O)[C@H](CCN)NC(=O)[C@H](Cc2ccc(O)cc2)NC(=O)[C@H](CO)NC1=O [compound 100] (cyclo(LSY[Dab][Orn][dDab][Dab]WK[Tle]AS[dP]P))
Hemolysis at 100 μg/ml: 1%

CC(C)C[C@@H]1NC(=O)[C@@H]2CCCN2C(=O)[C@H]2CCCN2C(=O)[C@H](CO)NC(=O)[C@H](C)NC(=O)[C@H](C(C)(C)C)NC(=O)[C@H](CN)NC(=O)[C@H](Cc2c[nH]c3ccccc23)NC(=O)[C@H](CCN)NC(=O)[C@@H](CCN)NC(=O)[C@H](CCCN)NC(=O)[C@H](CCN)NC(=O)[C@H](Cc2ccc(O)cc2)NC(=O)[C@H](CO)NC1=O [compound 101] (cyclo(LSY[Dab][Orn][dDab][Dab]W[Dap][Tle]AS[dP]P))
Hemolysis at 100 μg/ml: 1%

CC(C)C[C@@H]1NC(=O)[C@@H]2CCCN2C(=O)[C@H]2CCCN2C(=O)[C@H](CO)NC(=O)[C@H](C)NC(=O)[C@H](C(C)(C)C)NC(=O)[C@H](CCN)NC(=O)[C@H](Cc2c[nH]c3ccccc23)NC(=O)[C@H](CCCNC(=N)N)NC(=O)[C@@H](CCN)NC(=O)[C@H](CCCN)NC(=O)[C@H](CCN)NC(=O)[C@H](Cc2ccc(O)cc2)NC(=O)[C@H](CO)NC1=O [compound 102] (cyclo(LSY[Dab][Orn][dDab]RW[Dab][Tle]AS[dP]P))
Hemolysis at 100 μg/ml: 0%

CCC[C@@H]1NC(=O)[C@@H]2CCCN2C(=O)[C@H]2CCCN2C(=O)[C@H](CO)NC(=O)[C@H](C)NC(=O)[C@H](C(C)(C)C)NC(=O)[C@H](CCN)NC(=O)[C@H](Cc2c[nH]c3ccccc23)NC(=O)[C@H](CCN)NC(=O)[C@@H](CCN)NC(=O)[C@H](CCCN)NC(=O)[C@H](CCN)NC(=O)[C@H](Cc2ccc(O)c(F)c2)NC(=O)[C@H](CO)NC1=O [compound 105] (cyclo([Nva]S[Tyr(3-F)][Dab][Orn][dDab][Dab]W[Dab][Tle]AS[dP]P))
Hemolysis at 100 μg/ml: 1%

CCC[C@@H]1NC(=O)[C@@H]2CCCN2C(=O)[C@H]2CCCN2C(=O)[C@H](CO)NC(=O)[C@H](C)NC(=O)[C@H](C(C)(C)C)NC(=O)[C@H](CCN)NC(=O)[C@H](Cc2c[nH]c3ccccc23)NC(=O)[C@H](CCN)NC(=O)[C@@H](CCN)NC(=O)[C@H](CCCN)NC(=O)[C@H](CCN)NC(=O)[C@H](Cc2ccc(C(F)(F)F)cc2)NC(=O)[C@H](CO)NC1=O [compound 106] (cyclo([Nva]S[Phe(4-CF3)][Dab][Orn][dDab][Dab]W[Dab][Tle]AS[dP]P))
Hemolysis at 100 μg/ml: 2%
